Experimental data published in patent US20230085307A1, “PYRIDAZINONE COMPOUND AND HERBICIDE” (NISSAN CHEMICAL CORPORATION, priority 2019, published 2023).

Experiments:
velvetleaf [1] = experiment: Test Example 4: herbicidal effect by soil treatment (Table 19, symbol M); assay type: in vivo, velvetleaf (Abutilon theophrasti); settings: amount of applied herbicide 320 g/ha
Method in brief: (§1)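 Scoring uses the grading scale of an earlier test, three weeks post-application. Treatment consists of spraying a diluted emulsion formulation across the surface of sterilized diluvial soil in which seeds are buried near 1.5 cm deep; boxes are kept in a greenhouse between 25° C. and 30° C.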

barnyard grass [2] = experiment: Test Example 3: herbicidal effect by foliage application, Wagner pot (Table 18, symbol H); assay type: in vivo, barnyard grass (Echinochloa crus-galli); settings: 320 g/ha
Method in brief: (§2)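 Plants were sown in alluvial soil held under 0.1–0.5 cm standing water and grown 14 days in a greenhouse at 25–30 °C. An emulsifiable formulation, water-diluted to the set dose, was then sprayed onto the foliage, and effects were scored three weeks later using previously defined criteria.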

windgrass [3] = experiment: Test Example 5: herbicidal effect by foliage application, plastic box (Table 20, symbol L); assay type: in vivo, windgrass (Apera spica-venti); settings: foliage application, 320 g/ha, three weeks after application
Method in brief: (§3)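 Post-emergence foliar test in sterilized diluvial soil. Compound applied as water-diluted emulsion at a predetermined rate to 14-day-old plants; evaluation at three weeks.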

barnyard grass [4] = experiment: Test Example 4: herbicidal effect by soil treatment (Table 19, symbol H); assay type: in vivo, barnyard grass (Echinochloa crus-galli); settings: amount of applied herbicide 320 g/ha
Method in brief: as §1

barnyard grass [5] = experiment: Test Example 5: herbicidal effect by foliage application, plastic box (Table 20, symbol H); assay type: in vivo, barnyard grass (Echinochloa crus-galli); settings: foliage application, 320 g/ha, three weeks after application
Method in brief: as §3

Italian ryegrass [6] = experiment: Test Example 4: herbicidal effect by soil treatment (Table 19, symbol K); assay type: in vivo, Italian ryegrass (Lolium multiflorum); settings: amount of applied herbicide 320 g/ha
Method in brief: as §1

wild oat [7] = experiment: Test Example 5: herbicidal effect by foliage application, plastic box (Table 20, symbol I); assay type: in vivo, wild oat (Avena fatua); settings: foliage application, 320 g/ha, three weeks after application
Method in brief: as §3

southern crabgrass [8] = experiment: Test Example 4: herbicidal effect by soil treatment (Table 19, symbol F); assay type: in vivo, southern crabgrass (Digitaria ciliaris); settings: amount of applied herbicide 320 g/ha
Method in brief: as §1

persian speedwell [9] = experiment: Test Example 4: herbicidal effect by soil treatment (Table 19, symbol R); assay type: in vivo, Persian speedwell (Veronica persica); settings: amount of applied herbicide 320 g/ha
Method in brief: as §1

southern crabgrass [10] = experiment: Test Example 5: herbicidal effect by foliage application, plastic box (Table 20, symbol F); assay type: in vivo, southern crabgrass (Digitaria ciliaris); settings: foliage application, 320 g/ha, three weeks after application
Method in brief: as §3

lambsquarters [11] = experiment: Test Example 4: herbicidal effect by soil treatment (Table 19, symbol O); assay type: in vivo, lambsquarters (Chenopodium album); settings: amount of applied herbicide 320 g/ha
Method in brief: as §1

green foxtail [12] = experiment: Test Example 5: herbicidal effect by foliage application, plastic box (Table 20, symbol G); assay type: in vivo, green foxtail (Setaria viridis); settings: foliage application, 320 g/ha, three weeks after application
Method in brief: as §3

rice flat sedge = experiment: Test Example 3: herbicidal effect by foliage application, Wagner pot (Table 18, symbol E); assay type: in vivo, rice flat sedge (Cyperus iria); settings: 320 g/ha
Method in brief: as §2

persian speedwell [13] = experiment: Test Example 5: herbicidal effect by foliage application, plastic box (Table 20, symbol R); assay type: in vivo, Persian speedwell (Veronica persica); settings: foliage application, 320 g/ha, three weeks after application
Method in brief: as §3

redroot pigweed [14] = experiment: Test Example 4: herbicidal effect by soil treatment (Table 19, symbol N); assay type: in vivo, redroot pigweed (Amaranthus retroflexus); settings: amount of applied herbicide 320 g/ha
Method in brief: as §1

chickweed [15] = experiment: Test Example 5: herbicidal effect by foliage application, plastic box (Table 20, symbol P); assay type: in vivo, common chickweed (Stellaria media); settings: foliage application, 320 g/ha, three weeks after application
Method in brief: as §3

Italian ryegrass [16] = experiment: Test Example 5: herbicidal effect by foliage application, plastic box (Table 20, symbol K); assay type: in vivo, Italian ryegrass (Lolium multiflorum); settings: foliage application, 320 g/ha, three weeks after application
Method in brief: as §3

chickweed [17] = experiment: Test Example 4: herbicidal effect by soil treatment (Table 19, symbol P); assay type: in vivo, common chickweed (Stellaria media); settings: amount of applied herbicide 320 g/ha
Method in brief: as §1

blackgrass [18] = experiment: Test Example 4: herbicidal effect by soil treatment (Table 19, symbol J); assay type: in vivo, blackgrass (Alopecurus myosuroides); settings: amount of applied herbicide 320 g/ha
Method in brief: as §1

redroot pigweed [19] = experiment: Test Example 5: herbicidal effect by foliage application, plastic box (Table 20, symbol N); assay type: in vivo, redroot pigweed (Amaranthus retroflexus); settings: foliage application, 320 g/ha, three weeks after application
Method in brief: as §3

green foxtail [20] = experiment: Test Example 4: herbicidal effect by soil treatment (Table 19, symbol G); assay type: in vivo, green foxtail (Setaria viridis); settings: amount of applied herbicide 320 g/ha
Method in brief: as §1

blackgrass [21] = experiment: Test Example 5: herbicidal effect by foliage application, plastic box (Table 20, symbol J); assay type: in vivo, blackgrass (Alopecurus myosuroides); settings: foliage application, 320 g/ha, three weeks after application
Method in brief: as §3

velvetleaf [22] = experiment: Test Example 5: herbicidal effect by foliage application, plastic box (Table 20, symbol M); assay type: in vivo, velvetleaf (Abutilon theophrasti); settings: foliage application, 320 g/ha, three weeks after application
Method in brief: as §3

wild oat [23] = experiment: Test Example 4: herbicidal effect by soil treatment (Table 19, symbol I); assay type: in vivo, wild oat (Avena fatua); settings: amount of applied herbicide 320 g/ha
Method in brief: as §1

Chinese sprangletop = experiment: Test Example 3: herbicidal effect by foliage application, Wagner pot (Table 18, symbol D); assay type: in vivo, chinese sprangletop (Leptochloa chinensis); settings: 320 g/ha
Method in brief: as §2

windgrass [24] = experiment: Test Example 4: herbicidal effect by soil treatment (Table 19, symbol L); assay type: in vivo, windgrass (Apera spica-venti); settings: amount of applied herbicide 320 g/ha
Method in brief: as §1

lambsquarters [25] = experiment: Test Example 5: herbicidal effect by foliage application, plastic box (Table 20, symbol O); assay type: in vivo, lambsquarters (Chenopodium album); settings: foliage application, 320 g/ha, three weeks after application
Method in brief: as §3

CCCC(=O)Oc1c(C)nn(C)c(=O)c1-c1c(-c2ccccc2OC)sc2cc(Cl)ccc12 [3-036]
M: velvetleaf, herbicidal effect grade (velvetleaf [1]): 2 (Herbicidal rate of 20% or more and less than 40%)
herbicidal effect on barnyard grass (H) (barnyard grass [2]): 5 (Herbicidal rate of 90% or more (almost completely withered))
L: windgrass, herbicidal effect grade (windgrass [3]): 0 (Herbicidal rate of 5% or less (almost no effect))
H: barnyard grass, herbicidal effect grade (barnyard grass [4]): 3 (Herbicidal rate of 40% or more and less than 70%)
H: barnyard grass, herbicidal effect grade (barnyard grass [5]): 5 (Herbicidal rate of 90% or more (almost completely withered))
K: Italian ryegrass, herbicidal effect grade (Italian ryegrass [6]): 0 (Herbicidal rate of 5% or less (almost no effect))
I: wild oat, herbicidal effect grade (wild oat [7]): 1 (Herbicidal rate of 5% or more and less than 20%)
F: southern crabgrass, herbicidal effect grade (southern crabgrass [8]): 1 (Herbicidal rate of 5% or more and less than 20%)
R: persian speedwell, herbicidal effect grade (persian speedwell [9]): 3 (Herbicidal rate of 40% or more and less than 70%)
F: southern crabgrass, herbicidal effect grade (southern crabgrass [10]): 1 (Herbicidal rate of 5% or more and less than 20%)
O: lambsquarters, herbicidal effect grade (lambsquarters [11]): 3 (Herbicidal rate of 40% or more and less than 70%)
G: green foxtail, herbicidal effect grade (green foxtail [12]): 3 (Herbicidal rate of 40% or more and less than 70%)
herbicidal effect on rice flat sedge (E) (rice flat sedge): 4 (Herbicidal rate of 70% or more and less than 90%)
R: persian speedwell, herbicidal effect grade (persian speedwell [13]): 5 (Herbicidal rate of 90% or more (almost completely withered))
N: redroot pigweed, herbicidal effect grade (redroot pigweed [14]): 5 (Herbicidal rate of 90% or more (almost completely withered))
P: chickweed, herbicidal effect grade (chickweed [15]): 5 (Herbicidal rate of 90% or more (almost completely withered))
K: Italian ryegrass, herbicidal effect grade (Italian ryegrass [16]): 0 (Herbicidal rate of 5% or less (almost no effect))
P: chickweed, herbicidal effect grade (chickweed [17]): 3 (Herbicidal rate of 40% or more and less than 70%)
J: blackgrass, herbicidal effect grade (blackgrass [18]): 0 (Herbicidal rate of 5% or less (almost no effect))
N: redroot pigweed, herbicidal effect grade (redroot pigweed [19]): 5 (Herbicidal rate of 90% or more (almost completely withered))
G: green foxtail, herbicidal effect grade (green foxtail [20]): 2 (Herbicidal rate of 20% or more and less than 40%)
J: blackgrass, herbicidal effect grade (blackgrass [21]): 0 (Herbicidal rate of 5% or less (almost no effect))
M: velvetleaf, herbicidal effect grade (velvetleaf [22]): 4 (Herbicidal rate of 70% or more and less than 90%)
I: wild oat, herbicidal effect grade (wild oat [23]): 0 (Herbicidal rate of 5% or less (almost no effect))
herbicidal effect on Chinese sprangletop (D) (Chinese sprangletop): 0 (Herbicidal rate of 5% or less (almost no effect))
L: windgrass, herbicidal effect grade (windgrass [24]): 3 (Herbicidal rate of 40% or more and less than 70%)
O: lambsquarters, herbicidal effect grade (lambsquarters [25]): 3 (Herbicidal rate of 40% or more and less than 70%)
